Tests used:
[1] = target: T1, interaction between the recombinant extracellular domain (ECD) of PD-1 and native cell-bound PD-L1 (Homo sapiens, UniProt Q9NZQ7); assay: CHO/PD-L1 cell capture assay; assay type: cell-based; conditions: CHO cells overexpressing PD-L1, pre-incubated 1 hr with compound, captured on biotinylated Fc-PD-1 coated plates, 75 min at room temperature
T1 construct: expressed in transfected cells
Summary of the method: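 CHO cells stably overexpressing PD-L1 were pre-incubated 1 hr with compound, then captured 75 min at room temperature on biotinylated Fc-PD-1 ECD bound to streptavidin plates. After glutaraldehyde/Draq5 fixation-staining, captured cells were counted by high-content microscopy; EC50 from four-parameter dose-response fits.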

PD-1/PD-L1 interaction = target: T2, PD-1/PD-L1 interaction (Homo sapiens, UniProt Q9NZQ7); assay: PD-1/PD-L1 NFAT reporter co-culture assay; assay type: cell-based; conditions: Jurkat PD-1 NFAT-luciferase cells co-cultured with aAPC-PD-L1 CHO cells, 6 hrs at 37° C.; read-out: EC50 NFAT Luciferase
T2 construct: expressed in transfected cells; host or cells: CHO cells (aAPC-PD-L1) co-cultured with Jurkat cells overexpressing PD-1 and an NFAT-luciferase reporter
Summary of the method: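 First, CHO cells displaying anti-CD3 antibody and PD-L1 were plated overnight. Next, compound-treated PD-1 Jurkat NFAT-luciferase reporter cells in 2% FBS RPMI were added for 6 h at 37 °C. Finally, ONE-Glo luminescence was read and EC50 values fitted with a four-parameter equation.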

PD-L1 = target: T3, PD-L1 (Homo sapiens, UniProt Q9NZQ7); assay: PD-L1/PD-L1 dimerization biochemical protein-protein interaction assay (ALPHA); assay type: binding; conditions: compound-induced PD-L1 dimerization, head prints '1 nM' (0.5 nM His-tagged PD-L1 and 0.5 nM FLAG-tagged PD-L1), read-out: AC50 PDL1 Dimer Alpha 1 nM
T3 construct: determine if they can specifically dimerize the extracellular domains of PD-L1
Summary of the method: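 ALPHA proximity assay of compound-induced dimerization of 0.5 nM His-tagged and 0.5 nM FLAG-tagged PD-L1 extracellular domains in Hepes pH 7.4 buffer, 2 h at 25 °C. Anti-His acceptor then anti-FLAG donor beads, 60 min each; AC50 from four-parameter fit.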

T3 sequence (Q9NZQ7 19-238 limits assumed): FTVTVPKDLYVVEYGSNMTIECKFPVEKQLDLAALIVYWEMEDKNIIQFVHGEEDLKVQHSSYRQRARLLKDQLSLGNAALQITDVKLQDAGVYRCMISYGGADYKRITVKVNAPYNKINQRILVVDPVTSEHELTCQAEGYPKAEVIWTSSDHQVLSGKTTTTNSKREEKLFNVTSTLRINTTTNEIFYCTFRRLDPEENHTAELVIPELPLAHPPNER
T3 sequence (Q9NZQ7 19-238 limits assumed): as above
T2 sequence (Q9NZQ7 19-290): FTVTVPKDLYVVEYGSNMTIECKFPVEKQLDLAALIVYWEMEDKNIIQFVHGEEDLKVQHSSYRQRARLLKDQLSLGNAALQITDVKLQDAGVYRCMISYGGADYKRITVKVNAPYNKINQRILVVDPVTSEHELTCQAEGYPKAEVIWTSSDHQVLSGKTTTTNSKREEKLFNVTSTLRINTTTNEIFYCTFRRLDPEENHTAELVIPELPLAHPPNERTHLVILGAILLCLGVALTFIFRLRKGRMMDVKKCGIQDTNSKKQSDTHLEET
T1 sequence (Q9NZQ7 19-290): as above

Row | Compound | EC50 [1] | EC50 (PD-1/PD-L1 interaction) | AC50 (PD-L1)
1 | Cc1c(COc2cc(OCc3cncc(C#N)c3)c(CN[C@@H](C)C(=O)O)cc2Cl)cccc1-c1cccc(-c2ccc(OCCN[C@@H](C)C(=O)O)c([N+](=O)[O-])c2)c1C [Example 93, (4-((4″-(2-(((S)-1-carboxyethyl)amino)ethoxy)-2,2′-dimethyl-3″-nitro-[1,1′:3′,1″-terphenyl]-3-yl)methoxy)-5-chloro-2-((5-cyanopyridin-3-yl)methoxy)benzyl)-L-alanine] | 44.4 nM | 127 nM | 145 nM
2 | COc1nc(OCc2cccc(-c3cccc(COc4nc(OC)c(CN[C@@H](C)CC(=O)O)cc4Cl)c3C)c2C)c(Cl)cc1CN[C@@H](C)CC(=O)O [Example 74, (3S,3′S)-3,3′-((((((2,2′-dimethyl-[1,1′-biphenyl]-3,3′-diyl)bis(methylene))bis(oxy))bis(5-chloro-2-methoxypyridine-6,3-diyl))bis(methylene))bis(azanediyl))dibutyric acid] | 176 nM | 138 nM | ≥ 10000 nM
3 | Cc1c(COc2nc(OCCCCC#N)c(CNC[C@@H](O)CC(=O)O)cc2Br)cccc1-c1cccc(COc2nc(OCCCCC#N)c(CNC[C@@H](O)CC(=O)O)cc2Br)c1C [Example 143, (3S,3′S)-4,4′-((((((2,2′-dimethyl-[1,1′-biphenyl]-3,3′-diyl)bis(methylene))bis(oxy))bis(5-bromo-2-(4-cyanobutoxy)pyridine-6,3-diyl))bis(methylene))bis(azanediyl))bis(3-hydroxybutanoic acid)] | 296 nM | 217 nM | 395 nM
4 | COc1nc(OCc2cccc(-c3cccc(-c4ccc(OCCNC[C@@H](O)CC(=O)O)cc4)c3C)c2C)c(Cl)cc1CNC[C@@H](O)CC(=O)O [Example 109, (S)-4-(((6-((4″-(2-(((S)-3-carboxy-2-hydroxypropyl)amino)ethoxy)-2,2′-dimethyl-[1,1′:3′,1″-terphenyl]-3-yl)methoxy)-5-chloro-2-methoxypyridin-3-yl)methyl)amino)-3-hydroxybutanoic acid] | 7.5 nM | 662 nM | 113 nM
5 | COc1nc(OCc2cccc(-c3cccc(COc4nc(OC)c(CN[C@H](C)C(=O)O)cc4Cl)c3C)c2C)c(Cl)cc1CN[C@H](C)C(=O)O [Example 90, (2R,2′R)-2,2′-((((((2,2′-dimethyl-[1,1′-biphenyl]-3,3′-diyl)bis(methylene))bis(oxy))bis(5-chloro-2-methoxypyridine-6,3-diyl))bis(methylene))bis(azanediyl))dipropionic acid] | 219 nM | 113 nM | ≥ 10000 nM
6 | Cc1c(COc2cc(OCc3cncc(C#N)c3)c(CNC[C@@H](O)CC(=O)O)cc2Cl)cccc1-c1cccc(-c2ccc(OCCNC[C@@H](O)CC(=O)O)c([N+](=O)[O-])c2)c1C [Example 92, (S)-4-((4-((4″-(2-(((S)-3-carboxy-2-hydroxypropyl)amino)ethoxy)-2,2′-dimethyl-3″-nitro-[1,1′:3′,1″-terphenyl]-3-yl)methoxy)-5-chloro-2-((5-cyanopyridin-3-yl)methoxy)benzyl)amino)-3-hydroxybutanoic acid] | 25.9 nM | 63 nM | 170 nM
7 | COc1nc(OCc2cccc(-c3cccc(COc4nc(OC)c(CNC5(C(=O)O)CC5)cc4Cl)c3C)c2C)c(Cl)cc1CNC1(C(=O)O)CC1 [Example 91, 1,1′-((((((2,2′-dimethyl-[1,1′-biphenyl]-3,3′-diyl)bis(methylene))bis(oxy))bis(5-chloro-2-methoxypyridine-6,3-diyl))bis(methylene))bis(azanediyl))bis(cyclopropane-1-carboxylicacid)] | 196 nM | 523 nM | ≥ 10000 nM
8 | Cc1c(COc2nc(OCc3cc(C#N)cc(C#N)c3)c(CN[C@@](C)(CO)C(=O)O)cc2Cl)cccc1-c1cccc(COc2nc(OCc3cc(C#N)cc(C#N)c3)c(CN[C@@](C)(CO)C(=O)O)cc2Cl)c1C [Example 123, (2S,2′S)-2,2′-((((((2,2′-dimethyl-[1,1′-biphenyl]-3,3′-diyl)bis(methylene))bis(oxy))bis(5-chloro-2-((3,5-dicyanobenzyl)oxy)pyridine-6,3-diyl))bis(methylene))bis(azanediyl))bis(3-hydroxy-2-methylpropanoic acid)] | 137 nM | 75 nM | 198 nM

Now from value to compound:

Row | EC50 [1] | EC50 (PD-1/PD-L1 interaction) | AC50 (PD-L1) | Compound
9 | 69.1 nM | 141 nM | 260 nM | COc1nc(OCc2cccc(-c3cccc(COc4nc(OC)c(CNCCCC(=O)O)cc4Cl)c3C)c2C)c(Cl)cc1CNCCCC(=O)O [Example 183, 4,4′-((((((2,2′-dimethyl-[1,1′-biphenyl]-3,3′-diyl)bis(methylene))bis(oxy))bis(5-chloro-2-methoxypyridine-6,3-diyl))bis(methylene))bis(azanediyl))dibutyric acid]
10 | 31.2 nM | 197 nM | 267 nM | COc1nc(OCc2cccc(-c3cccc(COc4nc(OC)c(CNC[C@H](O)CC(=O)O)cc4Br)c3Cl)c2Cl)ccc1CNC[C@H](O)CC(=O)O [Example 192, (R)-4-(((6-((3′-(((3-Bromo-5-((((R)-3-carboxy-2-hydroxypropyl)amino)methyl)-6-methoxypyridin-2-yl)oxy)methyl)-2,2′-dichloro-[1,1′-biphenyl]-3-yl)methoxy)-2-methoxypyridin-3-yl)methyl)amino)-3-hydroxybutanoic acid]
11 | 123 nM | 164 nM | 237 nM | Cc1c(COc2nc(OC[C@@H]3CCC(=O)N3)c(CNCC(=O)O)cc2Br)cccc1-c1cccc(COc2nc(OC[C@@H]3CCC(=O)N3)c(CNCC(=O)O)cc2Br)c1C [Example 130, 2,2′-((((((2,2′-dimethyl-[1,1′-biphenyl]-3,3′-diyl)bis(methylene))bis(oxy))bis(5-bromo-2-(((S)-5-oxopyrrolidin-2-yl)methoxy)pyridine-6,3-diyl))bis(methylene))bis(azanediyl))diacetic acid]
12 | 147 nM | 74 nM | ≥ 10000 nM | Cc1c(COc2nc(OCc3cc(C#N)cc(C#N)c3)c(CN[C@@H](CO)C(=O)O)cc2Cl)cccc1-c1cccc(COc2nc(OCc3cc(C#N)cc(C#N)c3)c(CN[C@@H](CO)C(=O)O)cc2Cl)c1C [Example 124, (2S,2′S)-2,2′-((((((2,2′-dimethyl-[1,1′-biphenyl]-3,3′-diyl)bis(methylene))bis(oxy))bis(5-chloro-2-((3,5-dicyanobenzyl)oxy)pyridine-6,3-diyl))bis(methylene))bis(azanediyl))bis(3-hydroxypropanoic acid)]
13 | 27.7 nM | 260 nM | 109 nM | Cc1c(COc2cc(OCc3cncc(C#N)c3)c(CNC[C@@H](O)CC(=O)O)cc2Cl)cccc1-c1cccc(OCc2ccc(CNC[C@@H](O)CC(=O)O)cc2)c1C [Example 279, (S)-4-((4-(((3′-((4-((((S)-3-carboxy-2-hydroxypropyl)amino)methyl)-2-chloro-5-((5-cyanopyridin-3-yl)methoxy)phenoxy)methyl)-2,2′-dimethyl-[1,1′-biphenyl]-3-yl)oxy)methyl)benzyl)amino)-3-hydroxybutanoic acid]
14 | 129 nM | 288 nM | 282 nM | Cc1c(COc2nc(OCCc3cncnc3)c(CNCC(=O)O)cc2Cl)cccc1-c1cccc(COc2nc(OCCc3cncnc3)c(CNCC(=O)O)cc2Cl)c1C [Example 133, 2,2′-((((((2,2′-dimethyl-[1,1′-biphenyl]-3,3′-diyl)bis(methylene))bis(oxy))bis(5-chloro-2-(2-(pyrimidin-5-yl)ethoxy)pyridine-6,3-diyl))bis(methylene))bis(azanediyl))diacetic acid]
15 | 254 nM | 463 nM | 327 nM | Cc1c(COc2cc(OCc3cncc(C#N)c3)c(CNC(CO)(CO)CO)cc2Cl)cccc1-c1cccc(COc2cc(OCc3cncc(C#N)c3)c(CNC(CO)(CO)CO)cc2Cl)c1C [Example 282, 5,5′-((((((2,2′-dimethyl-[1,1′-biphenyl]-3,3′-diyl)bis(methylene))bis(oxy))bis(4-chloro-6-(((1,3-dihydroxy-2-(hydroxymethyl)propan-2-yl)amino)methyl)-3,1-phenylene))bis(oxy))bis(methylene))dinicotinonitrile]
16 | 45.6 nM | 304 nM | 81.2 nM | Cc1c(COc2cc(OCc3cncc(C#N)c3)c(CNC[C@@H](O)CC(=O)O)cc2Cl)cccc1-c1cccc(-c2ccc3sc(CNC[C@@H](O)CC(=O)O)cc3c2)c1C [Example 211]
17 | 13.1 nM | 73 nM | 70.5 nM | Cc1c(COc2cc(OCc3cncc(C#N)c3)c(CNC[C@@H](O)CC(=O)O)cc2Cl)cccc1-c1cccc(-c2ccc3c(cnn3CCNC[C@@H](O)CC(=O)O)c2)c1C [Example 209, (S)-4-((4-((3′-(1-(2-(((S)-3-carboxy-2-hydroxypropyl)amino)ethyl)-1H-indazol-5-yl)-2,2′-dimethyl-[1,1′-biphenyl]-3-yl)methoxy)-5-chloro-2-((5-cyanopyridin-3-yl)methoxy)benzyl)amino)-3-hydroxybutanoic acid]
